# Measurements published in patent publication US10238713B2, “Cyclic tetrapeptides and therapeutic applications thereof” (LODZ UNIVERSITY OF TECHNOLOGY, priority 2010, dated 2019).
# Residues, ends and D or L forms follow the SMILES beside them.
# System: human peripheral mononuclear blood cells (PBMC)
# Test: Cytotoxic test on human blood mononuclear cells (24 h, colorimetric)
# Conditions: at 40 μg/ml, FIG. 5
# Description: For evaluation of toxicity of the compound of formula I-A, human peripheral mononuclear blood cells (PBMC) were chosen. This fraction consists of approximately 80% lymphocytes and 20% monocytes. As a reference compound, cyclolinopeptide (CLA) was selected since the compound of formula I-A shares a part of the sequence of CLA.
# After centrifugation at 1200×g for 20 min, the mononuclear cells from the interphase were harvested and washed 3 times with PBS. The cells were re-suspended in a standard culture medium consisting of RPMI-1640 medium, L-glutamine, sodium pyruvate, 2-mercaptoethanol, 100 μg/ml each of streptomycin and penicillin, and 10% fetal calf serum. The cells were distributed to in 96-well flat-bottom culture plates at density of 2×10^5/100 μl. The compounds (formula I-A and CLA) were initially dissolved in DMSO (5 mg/500 μl) and subsequently in the culture medium. DMSO, appropriately diluted with the culture medium, was used as a control. After 24 h incubation in a cell culture incubator, cell viability was determined by a colorimetric method (Hansen et al., J Immunol Methods, 1989, 119, 203-210).
smiles,measurement,value
"CC[C@H](C)[C@@H]1NC(=O)[C@H](CC(C)C)NC(=O)[C@H](Cc2ccccc2)NC(=O)[C@H](Cc2ccccc2)NC(=O)[C@@H]2CCCN2C(=O)[C@@H]2CCCN2C(=O)[C@H](C(C)C)NC(=O)[C@H](CC(C)C)NC(=O)[C@H]([C@@H](C)CC)NC1=O [CLA, Cyclolinopeptide A] (cyclo(FFLIILVPP))",cytotoxic effect on PBMC,statistically significant cytotoxic effect
